Source: US12365696B2, “Small-molecule focal adhesion kinase (FAK) inhibitors” (DANA-FARBER CANCER INSTITUTE, INC., priority 2019, dated 2025)

Legend:
Assay type in all cases: binding
DYRK1B = DYRK1B (Homo sapiens (Human), UniProt Q9Y463); assay: KINOMEscan; conditions: 10000 nM, read-out: Percent Control
PLK2 = PLK2 (Homo sapiens (Human), UniProt Q9NYY3); assay: KINOMEscan; conditions: PLK2, 10000 nM; read-out: Percent Control
ROS1 = ROS1 (Homo sapiens (Human), UniProt P08922); assay: KINOMEscan; conditions: ROS1, 10000 nM; read-out: Percent Control
CASK = CASK (Homo sapiens (Human), UniProt O14936); assay: KINOMEscan; conditions: 10000 nM, read-out: Percent Control
ACVRL1 = ACVRL1 (Homo sapiens (Human), UniProt P37023); assay: KINOMEscan; conditions: ACVRL1, 10000 nM; read-out: Percent Control
[1] = target: RPS6KA4(Kin.Dom.1-N-terminal) (Homo sapiens (Human), UniProt O75676); assay: KINOMEscan; conditions: 10000 nM, read-out: Percent Control
[2] = target: JAK1(JH2domain-pseudokinase) (Homo sapiens (Human), UniProt P23458); assay: KINOMEscan; conditions: 10000 nM, read-out: Percent Control
PIK3CA(E542K) = PIK3CA(E542K) (Homo sapiens (Human), UniProt P42336, E542K); assay: KINOMEscan; conditions: 10000 nM, read-out: Percent Control
FES = FES (Homo sapiens (Human), UniProt P07332); assay: KINOMEscan; conditions: 10000 nM, read-out: Percent Control
PIK3CA(Q546K) = PIK3CA(Q546K) (Homo sapiens (Human), UniProt P42336, Q546K); assay: KINOMEscan; conditions: 10000 nM, read-out: Percent Control
IKK-epsilon = IKK-epsilon (Homo sapiens (Human), UniProt Q14164); assay: KINOMEscan; conditions: 10000 nM, read-out: Percent Control
FGFR3(G697C) = FGFR3(G697C) (Homo sapiens (Human), UniProt P22607, G697C); assay: KINOMEscan; conditions: 10000 nM, read-out: Percent Control
PKN2 = PKN2 (Homo sapiens (Human), UniProt Q16513); assay: KINOMEscan; conditions: PKN2, 10000 nM; read-out: Percent Control
CAMKK1 = CAMKK1 (Homo sapiens (Human), UniProt Q8N5S9); assay: KINOMEscan; conditions: CAMKK1, 10000 nM; read-out: Percent Control
EGFR(G719C) = EGFR(G719C) (Homo sapiens (Human), UniProt P00533, G719C); assay: KINOMEscan; conditions: 10000 nM, read-out: Percent Control
PRKCH = PRKCH (Homo sapiens (Human), UniProt P24723); assay: KINOMEscan; conditions: 10000 nM, read-out: Percent Control
[3] = target: ABL1(Q252H)-nonphosphorylated (Homo sapiens (Human), UniProt P00519, Q252H); assay: KINOMEscan; conditions: 10000 nM, read-out: Percent Control
PAK6 = PAK6 (Homo sapiens (Human), UniProt Q9NQU5); assay: KINOMEscan; conditions: PAK6, 10000 nM; read-out: Percent Control
MYO3A = MYO3A (Homo sapiens (Human), UniProt Q8NEV4); assay: KINOMEscan; conditions: 10000 nM, read-out: Percent Control
[4] = target: ABL1(Q252H)-phosphorylated (Homo sapiens (Human), UniProt P00519, Q252H); assay: KINOMEscan; conditions: 10000 nM, read-out: Percent Control
403 non-mutant kinases = assay: KINOMEscan panel selectivity (S-Score, number of kinases engaged); conditions: 10 μM; for S-Score (35): non-mutant kinases below 35% control divided by kinases examined
Protocol: Selectivity profiling of compound 3 among a panel of kinases was performed with KINOMEscan® as set forth below. The KINOMEscan® screening platform employs an active site-directed competition binding assay to quantitatively measure interactions between a test compound, e.g., compound 3, and more than 450 kinases and disease-relevant mutant variants.
Screening of compound 3 was conducted at a concentration of 10 μM by Eurofins DiscoverX. Activity is measured as the ability of compound 3 to displace the kinase from a solid support relative to a negative control (i.e., DMSO). The output is % control.
The selectivity score (S-Score) refers to the number of non-mutant kinases that display a % control below a specific number, divided by the number of non-mutant kinases that were examined.
Selectivity profiling of compound 5 among a panel of kinases was performed with KINOMEscan® as set forth below.

ACVR1 = ACVR1 (Homo sapiens (Human), UniProt Q04771); assay: KINOMEscan; conditions: ACVR1, 10000 nM; read-out: Percent Control
YANK2 = YANK2 (Homo sapiens (Human), UniProt Q9NY57); assay: KINOMEscan; conditions: YANK2, 10000 nM; read-out: Percent Control
FLT3(R834Q) = FLT3(R834Q) (Homo sapiens (Human), UniProt P36888, R834Q); assay: KINOMEscan; conditions: 10000 nM, read-out: Percent Control
PIP5K1C = PIP5K1C (Homo sapiens (Human), UniProt O60331); assay: KINOMEscan; conditions: 10000 nM, read-out: Percent Control
DLK = DLK (Homo sapiens (Human), UniProt Q12852); assay: KINOMEscan; conditions: 10000 nM, read-out: Percent Control
[5] = target: RSK1(Kin.Dom.1-N-terminal) (Homo sapiens (Human), UniProt Q15418); assay: KINOMEscan; conditions: 10000 nM, read-out: Percent Control
LTK = LTK (Homo sapiens (Human), UniProt P29376); assay: KINOMEscan; conditions: 10000 nM, read-out: Percent Control
INSR = INSR (Homo sapiens (Human), UniProt P06213); assay: KINOMEscan; conditions: 10000 nM, read-out: Percent Control
AURKC = AURKC (Homo sapiens (Human), UniProt Q9UQB9); assay: KINOMEscan; conditions: 10000 nM, read-out: Percent Control
BMPR1B = BMPR1B (Homo sapiens (Human), UniProt O00238); assay: KINOMEscan; conditions: 10000 nM, read-out: Percent Control
PAK1 = PAK1 (Homo sapiens (Human), UniProt Q13153); assay: KINOMEscan; conditions: PAK1, 10000 nM; read-out: Percent Control

Sequence of PRKCH (P24723 whole entry): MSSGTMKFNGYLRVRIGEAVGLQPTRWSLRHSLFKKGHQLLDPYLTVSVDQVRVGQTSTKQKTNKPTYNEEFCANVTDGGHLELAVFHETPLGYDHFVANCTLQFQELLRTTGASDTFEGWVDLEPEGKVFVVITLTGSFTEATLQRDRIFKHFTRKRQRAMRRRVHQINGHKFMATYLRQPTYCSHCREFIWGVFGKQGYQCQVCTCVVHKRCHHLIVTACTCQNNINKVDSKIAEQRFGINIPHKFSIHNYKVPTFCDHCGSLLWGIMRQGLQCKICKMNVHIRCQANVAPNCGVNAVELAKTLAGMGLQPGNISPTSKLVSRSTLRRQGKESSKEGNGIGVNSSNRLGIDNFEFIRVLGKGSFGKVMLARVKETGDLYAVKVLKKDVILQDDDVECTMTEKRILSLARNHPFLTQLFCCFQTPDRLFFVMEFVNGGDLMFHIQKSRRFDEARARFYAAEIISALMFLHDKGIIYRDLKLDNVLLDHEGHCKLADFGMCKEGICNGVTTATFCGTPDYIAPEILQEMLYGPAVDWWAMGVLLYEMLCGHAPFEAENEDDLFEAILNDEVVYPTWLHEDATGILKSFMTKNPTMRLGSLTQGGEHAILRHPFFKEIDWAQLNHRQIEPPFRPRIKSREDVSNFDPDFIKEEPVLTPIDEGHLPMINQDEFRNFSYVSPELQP
Sequence of RPS6KA4(Kin.Dom.1-N-terminal) (O75676 33-301): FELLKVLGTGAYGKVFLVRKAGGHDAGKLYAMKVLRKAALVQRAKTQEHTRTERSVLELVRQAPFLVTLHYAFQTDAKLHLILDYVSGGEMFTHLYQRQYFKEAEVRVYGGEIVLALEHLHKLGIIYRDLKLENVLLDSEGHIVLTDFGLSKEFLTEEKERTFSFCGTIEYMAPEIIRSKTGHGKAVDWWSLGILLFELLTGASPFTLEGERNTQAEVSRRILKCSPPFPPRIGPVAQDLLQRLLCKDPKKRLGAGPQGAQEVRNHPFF
Sequence of PAK6 (Q9NQU5 whole entry): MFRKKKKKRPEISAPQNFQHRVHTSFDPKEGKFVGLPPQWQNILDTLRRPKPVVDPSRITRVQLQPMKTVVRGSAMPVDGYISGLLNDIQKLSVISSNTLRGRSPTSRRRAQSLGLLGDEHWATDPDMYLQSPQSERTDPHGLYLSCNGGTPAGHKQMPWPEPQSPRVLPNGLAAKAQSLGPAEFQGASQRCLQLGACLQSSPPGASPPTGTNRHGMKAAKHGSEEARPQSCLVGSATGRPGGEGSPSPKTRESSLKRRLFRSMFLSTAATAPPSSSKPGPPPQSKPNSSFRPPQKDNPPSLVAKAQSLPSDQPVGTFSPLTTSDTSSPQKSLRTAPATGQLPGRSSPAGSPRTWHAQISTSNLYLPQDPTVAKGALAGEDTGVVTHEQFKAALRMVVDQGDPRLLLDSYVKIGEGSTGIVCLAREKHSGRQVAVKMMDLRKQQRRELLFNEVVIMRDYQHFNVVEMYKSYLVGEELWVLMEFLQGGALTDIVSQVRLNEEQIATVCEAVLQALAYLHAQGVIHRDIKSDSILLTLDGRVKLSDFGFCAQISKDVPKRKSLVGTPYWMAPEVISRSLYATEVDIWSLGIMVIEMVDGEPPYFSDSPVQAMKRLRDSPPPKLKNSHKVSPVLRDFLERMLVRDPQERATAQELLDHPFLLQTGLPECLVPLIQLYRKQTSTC
Sequence of DYRK1B (Q9Y463 whole entry): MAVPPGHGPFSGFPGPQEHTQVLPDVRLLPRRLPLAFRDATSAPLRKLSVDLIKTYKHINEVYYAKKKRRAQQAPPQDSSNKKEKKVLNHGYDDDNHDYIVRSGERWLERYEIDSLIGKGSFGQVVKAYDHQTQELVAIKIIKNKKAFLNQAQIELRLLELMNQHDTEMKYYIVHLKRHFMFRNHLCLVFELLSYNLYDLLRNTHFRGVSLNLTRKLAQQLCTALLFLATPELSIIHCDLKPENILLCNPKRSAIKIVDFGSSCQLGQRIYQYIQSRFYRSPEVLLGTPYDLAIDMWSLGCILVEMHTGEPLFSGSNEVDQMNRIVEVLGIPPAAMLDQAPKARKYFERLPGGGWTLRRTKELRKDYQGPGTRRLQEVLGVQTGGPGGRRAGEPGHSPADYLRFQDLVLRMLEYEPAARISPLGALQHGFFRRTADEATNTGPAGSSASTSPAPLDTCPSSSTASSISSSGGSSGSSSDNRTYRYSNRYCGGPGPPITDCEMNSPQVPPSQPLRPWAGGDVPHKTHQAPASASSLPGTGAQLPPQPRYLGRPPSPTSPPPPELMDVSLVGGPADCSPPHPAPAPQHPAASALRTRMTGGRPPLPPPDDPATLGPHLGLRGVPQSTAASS
Sequence of IKK-epsilon (Q14164 whole entry): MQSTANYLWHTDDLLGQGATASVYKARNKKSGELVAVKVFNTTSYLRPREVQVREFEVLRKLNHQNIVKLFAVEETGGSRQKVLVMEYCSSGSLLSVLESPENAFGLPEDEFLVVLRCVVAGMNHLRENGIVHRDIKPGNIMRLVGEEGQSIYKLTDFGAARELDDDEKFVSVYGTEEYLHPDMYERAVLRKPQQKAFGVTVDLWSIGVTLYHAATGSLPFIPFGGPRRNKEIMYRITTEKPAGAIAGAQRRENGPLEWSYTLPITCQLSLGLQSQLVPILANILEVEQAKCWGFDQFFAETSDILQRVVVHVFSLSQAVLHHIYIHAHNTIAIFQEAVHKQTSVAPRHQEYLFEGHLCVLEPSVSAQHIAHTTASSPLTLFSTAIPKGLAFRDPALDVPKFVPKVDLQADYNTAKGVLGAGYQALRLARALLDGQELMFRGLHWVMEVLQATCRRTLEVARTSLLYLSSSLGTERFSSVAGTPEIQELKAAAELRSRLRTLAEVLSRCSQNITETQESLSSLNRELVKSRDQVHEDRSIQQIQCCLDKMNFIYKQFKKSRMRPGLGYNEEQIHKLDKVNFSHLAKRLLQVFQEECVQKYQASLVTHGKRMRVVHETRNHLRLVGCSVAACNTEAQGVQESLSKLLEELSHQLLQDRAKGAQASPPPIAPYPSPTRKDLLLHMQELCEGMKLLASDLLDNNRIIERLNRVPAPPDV
Sequence of ACVRL1 (P37023 22-503): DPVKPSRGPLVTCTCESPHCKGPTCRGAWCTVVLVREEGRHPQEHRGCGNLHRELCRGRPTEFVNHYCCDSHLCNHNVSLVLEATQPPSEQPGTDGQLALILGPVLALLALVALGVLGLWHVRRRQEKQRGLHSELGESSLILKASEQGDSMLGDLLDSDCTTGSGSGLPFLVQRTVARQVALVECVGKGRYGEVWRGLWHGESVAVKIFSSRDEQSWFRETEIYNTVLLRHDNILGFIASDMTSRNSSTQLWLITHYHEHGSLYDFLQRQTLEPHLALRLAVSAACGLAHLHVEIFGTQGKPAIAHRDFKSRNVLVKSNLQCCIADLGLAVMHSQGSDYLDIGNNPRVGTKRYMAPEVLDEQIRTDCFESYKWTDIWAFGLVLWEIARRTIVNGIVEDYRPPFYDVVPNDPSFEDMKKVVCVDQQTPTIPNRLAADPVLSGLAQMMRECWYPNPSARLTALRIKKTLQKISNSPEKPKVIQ
Sequence of JAK1(JH2domain-pseudokinase) (P23458 583-855): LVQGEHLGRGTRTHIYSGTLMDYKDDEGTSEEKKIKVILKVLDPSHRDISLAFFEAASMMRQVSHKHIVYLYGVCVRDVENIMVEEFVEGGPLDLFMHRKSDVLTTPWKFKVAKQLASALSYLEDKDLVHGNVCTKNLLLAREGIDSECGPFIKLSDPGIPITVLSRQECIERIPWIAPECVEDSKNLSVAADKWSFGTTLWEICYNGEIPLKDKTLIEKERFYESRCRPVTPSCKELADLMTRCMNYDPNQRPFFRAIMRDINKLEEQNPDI
Sequence of EGFR(G719C) (P00533 25-1210 G719C): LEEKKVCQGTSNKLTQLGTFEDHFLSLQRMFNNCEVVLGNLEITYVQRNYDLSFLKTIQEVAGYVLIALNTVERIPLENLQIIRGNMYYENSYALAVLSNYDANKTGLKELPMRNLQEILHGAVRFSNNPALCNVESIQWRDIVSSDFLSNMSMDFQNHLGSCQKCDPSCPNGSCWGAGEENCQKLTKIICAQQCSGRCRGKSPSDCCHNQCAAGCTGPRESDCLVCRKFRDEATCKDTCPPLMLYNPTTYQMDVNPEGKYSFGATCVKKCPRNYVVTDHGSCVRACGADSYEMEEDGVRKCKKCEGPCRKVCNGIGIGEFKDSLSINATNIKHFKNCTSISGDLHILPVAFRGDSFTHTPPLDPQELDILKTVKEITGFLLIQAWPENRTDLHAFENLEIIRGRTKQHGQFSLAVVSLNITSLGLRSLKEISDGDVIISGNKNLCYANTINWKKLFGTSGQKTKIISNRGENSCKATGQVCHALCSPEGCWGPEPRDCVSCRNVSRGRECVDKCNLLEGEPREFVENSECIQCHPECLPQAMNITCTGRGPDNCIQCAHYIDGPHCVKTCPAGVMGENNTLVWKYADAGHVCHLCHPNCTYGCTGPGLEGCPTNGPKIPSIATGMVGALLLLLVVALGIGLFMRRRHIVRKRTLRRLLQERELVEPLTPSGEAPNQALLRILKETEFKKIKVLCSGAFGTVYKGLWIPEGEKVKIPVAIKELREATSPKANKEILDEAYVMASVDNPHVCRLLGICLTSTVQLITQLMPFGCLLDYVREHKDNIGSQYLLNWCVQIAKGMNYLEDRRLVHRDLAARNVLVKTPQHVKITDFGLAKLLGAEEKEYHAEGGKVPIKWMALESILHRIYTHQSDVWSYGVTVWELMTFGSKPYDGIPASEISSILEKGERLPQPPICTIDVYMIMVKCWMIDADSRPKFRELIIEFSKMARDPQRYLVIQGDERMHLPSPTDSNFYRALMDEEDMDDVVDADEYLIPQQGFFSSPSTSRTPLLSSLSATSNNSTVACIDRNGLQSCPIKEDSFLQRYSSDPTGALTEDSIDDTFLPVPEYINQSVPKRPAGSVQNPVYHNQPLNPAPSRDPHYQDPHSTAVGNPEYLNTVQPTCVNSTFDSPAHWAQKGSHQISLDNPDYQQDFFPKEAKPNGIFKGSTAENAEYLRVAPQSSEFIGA

COc1cc(N2CCC(N3CCN(C)CC3)CC2)ccc1Nc1ncc2c(n1)N(C)c1sc(C)nc1C(=O)N2 [Compound 3, 6-((2-methoxy-4-(4-(4-methylpiperazin-1-yl)piperidin-1-yl)phenyl)amino)-2,4-dimethyl-4,9-dihydro-10H-pyrimido[5,4-b]thiazolo[5,4-e][1,4]diazepin-10-one]
remaining binding at 10 µM (DYRK1B): 69% | remaining binding at 10 µM (PLK2): 100% | remaining binding at 10 µM (ROS1): 74% | remaining binding at 10 µM (CASK): 83% | remaining binding at 10 µM (ACVRL1): 96% | remaining binding at 10 µM [1]: 100% | remaining binding at 10 µM [2]: 85% | remaining binding at 10 µM (PIK3CA(E542K)): 100% | remaining binding at 10 µM (FES): 81% | remaining binding at 10 µM (PIK3CA(Q546K)): 100% | remaining binding at 10 µM (IKK-epsilon): 78% | remaining binding at 10 µM (FGFR3(G697C)): 78% | remaining binding at 10 µM (PKN2): 100% | remaining binding at 10 µM (CAMKK1): 84% | remaining binding at 10 µM (EGFR(G719C)): 34% | remaining binding at 10 µM (PRKCH): 89% | remaining binding at 10 µM [3]: 7.8% | remaining binding at 10 µM (PAK6): 97% | remaining binding at 10 µM (MYO3A): 79% | remaining binding at 10 µM [4]: 9.7% | S-Score (35) (403 non-mutant kinases): 0.02 | number of non-mutant kinases displaying <35% relative to control (403 non-mutant kinases; out of 403 non-mutant kinases): five | number of other kinases engaged with greater than 65% inhibition (403 non-mutant kinases; panel of 403 kinases): 4 | remaining binding at 10 µM (ACVR1): 93% | remaining binding at 10 µM (YANK2): 85% | remaining binding at 10 µM (FLT3(R834Q)): 100% | remaining binding at 10 µM (PIP5K1C): 99% | remaining binding at 10 µM (DLK): 90% | remaining binding at 10 µM [5]: 78% | remaining binding at 10 µM (LTK): 81% | remaining binding at 10 µM (INSR): 83% | remaining binding at 10 µM (AURKC): 95% | remaining binding at 10 µM (BMPR1B): 88% | remaining binding at 10 µM (PAK1): 64%

COc1cc(N2CCC(N3CCN(C)CC3)CC2)ccc1Nc1ncc2c(n1)N(C)c1sc(C)nc1C(=O)N2C [Compound 5, 6-((2-methoxy-4-(4-(4-methylpiperazin-1-yl)piperidin-1-yl)phenyl)amino)-2,4,9-trimethyl-4,9-dihydro-10H-pyrimido[5,4-b]thiazolo[5,4-e][1,4]diazepin-10-one]
remaining binding at 10 µM (DYRK1B): 87% | remaining binding at 10 µM (PLK2): 62% | remaining binding at 10 µM (ROS1): 75% | remaining binding at 10 µM (CASK): 100% | remaining binding at 10 µM (ACVRL1): 99% | remaining binding at 10 µM [1]: 100% | remaining binding at 10 µM [2]: 89% | remaining binding at 10 µM (PIK3CA(E542K)): 93% | remaining binding at 10 µM (FES): 97% | remaining binding at 10 µM (PIK3CA(Q546K)): 94% | remaining binding at 10 µM (IKK-epsilon): 100% | remaining binding at 10 µM (FGFR3(G697C)): 100% | remaining binding at 10 µM (PKN2): 100% | remaining binding at 10 µM (CAMKK1): 100% | remaining binding at 10 µM (EGFR(G719C)): 100% | remaining binding at 10 µM (PRKCH): 94% | remaining binding at 10 µM [3]: 93% | remaining binding at 10 µM (PAK6): 100% | remaining binding at 10 µM (MYO3A): 100% | remaining binding at 10 µM [4]: 100% | S(1) (403 non-mutant kinases): 0.005 | S(10) (403 non-mutant kinases): 0.012 | S-Score (35) (403 non-mutant kinases): 0.042 | remaining binding at 10 µM (ACVR1): 93% | remaining binding at 10 µM (YANK2): 100% | remaining binding at 10 µM (FLT3(R834Q)): 81% | remaining binding at 10 µM (PIP5K1C): 95% | remaining binding at 10 µM (DLK): 86% | remaining binding at 10 µM [5]: 83% | remaining binding at 10 µM (LTK): 97% | remaining binding at 10 µM (INSR): 40% | remaining binding at 10 µM (AURKC): 100% | remaining binding at 10 µM (BMPR1B): 94% | remaining binding at 10 µM (PAK1): 92%
